From article PMC8838415, “Discovery of Novel Pleuromutilin Derivatives as Potent Antibacterial Agents for the Treatment of MRSA Infection” (Molecules, 2022)
Converted amounts (≈) assume the structure as drawn.

Assays:
[1] = system: methicillin-resistant S. aureus (ATCC 43300); assay: MIC and MBC, broth dilution, MRSA ATCC 43300; type: cell-based; settings: Staphylococcus aureus
Description: (§1) The synthesized pleuromutilin derivatives 8–30 were tested against four Gram-positive bacteria (MRSA ATCC 43300, S. aureus ATCC 29213 and two clinical strains of S. aureus (AD3 and 144) isolated from Guangdong Province). Tiamulin was used as the positive control in this experiment.
(§2) MIC values were tested following our previous work. The derivatives were dissolved in an aqueous solution of 2.5% tween-80 and 2.5% DMSO to make a solution with a concentration of 1000 µg/mL. The solution was diluted 12 times with MH broth to give a concentration range of 32–0.01 µg/mL. The bacteria (5 × 10^5 CFU/mL) were added in each well. For each compound concentration, three parallel experiments were set. The 96-well plate was incubated for 22–26 h at 37 °C. The MIC value was recorded as the minimal concentration that inhibits the visible growth of tested bacteria completely.
(§3) The MBC of these pleuromutilin derivatives were tested according to a previously reference. […] Then, the values of MBC were determined by laying 100 μL aliquots from the wells onto the MH agar plates without visible growth. The MH agar plate was cultured for a further 22–26 h at 37 °C.

[2] = system: S. aureus (144); assay: MIC and MBC, broth dilution, S. aureus 144; type: cell-based; settings: Staphylococcus aureus; S. aureus 144 (clinical strain)
Description: as §1, §2, §3

[3] = system: 50S ribosome; assay: SPR interaction and affinity analysis; type: binding, S. aureus ATCC 43300; settings: 4 °C; for Avg ka / Avg kd: 1:1 Langmuir binding; for Kd: KD = Kd/Ka
Description: S. aureus ATCC 43300 was used to prepare the 50S ribosomal subunit the same way as described previously. Cells were grown overnight in Brain Heart Infusion broth at 37 °C and harvested for 1.5 h at an OD600. Cells were washed with 10 mM Tris-HCl twice at pH = 7.5, and resuspended in 5 mL buffer A (20 mM HEPES-HCl pH = 7.5, 21 mM Mg(OAc)2, 100 mM NH4Cl, 1 mM DTT, 1 mM EDTA). Cells were broken by an ultrasound crusher. The lysate was centrifuged for 90 min at 20,000× g to clear cell debris.
The solution was layered on a sucrose cushion of 15 mL (10 mM Hepes-KOH pH 7.5, 25 mM Mg(OAc)2, 500 mM KCl, […], 1 mM DTT, 0.5 mM EDTA). Centrifugation was carried out for 15 h at 45,000 rpm using an ultracentrifuge Beckman (Beckman Coulter, Shanghai, China), Type 70Ti rotor. The crude ribosome pellet was resuspended in buffer E (10 mM Hepes-KOH pH 7.5, 10 mM Mg(OAc)2, 100 mM KCl, 1 mM DTT, 0.5 mM EDTA), then layered on 9 mL of 7–30% sucrose gradient and centrifuged in an ultracentrifuge Beckman, type SW40Ti rotor at 17,100 rpm for 15 h. The gradient was analyzed on the AKTA explorer system (Amersham, UK). The fractions corresponding to the 50S ribosomal subunit were collected and further subjected to precipitation by PEG 20,000. The 50S ribosomal subunit pellet was gently dissolved in 200 µL of storage buffer (10 mM HEPES-HCl pH = 7.5, 10 mM Mg(OAc)2, 15 mM KCl, 60 mM NH4Cl, 1 mM DTT) and stored at −80 °C.
SPR affinity analysis was performed on the bScreen LB 991 Label-free Microarray System (Berthold Technologies, Black Forest, Germany) at 4 °C and Biodot AD-1520 Array Printer (BIODOT Inc., Irvine, CA, USA) with a Photo-cross-linker SensorCHIP™. Concentrations of each compound were diluted to 100 μM with DMSO as the printing working solution for immobilization. A Biodot AD-1520 Array Printer (BIODOT Inc., CA, USA) was used to control the photo-cross-linker sensor chip and print samples. Each sample was printed four times. In order to check the chip quality and check whether the detection system works, DMSO was used as a system-negative control and rapamycin as a positive control. All positive control dots were divided into four groups and printed on the four corners of the sensor chip. The sensor chip was dried in vacuum after the array print and quickly transferred to a spectra radiator for a photo cross-linking reaction. The sensor chip was washed with C2H5OH, DMF and H2O in turn and evaporated in a N2 atmosphere for 15 min. Then, the Flowcell Cover were assembled.
The 50S ribosome was diluted separately to 200 nM, 400 nM, 800 nM, 1600 nM and 3200 nM with PBST (pH = 7.4, 0.1% Tween 20). Different concentrations of ribosome solutions were injected at a flow rate of 0.5 μL⋅s^−1 for 600 s at the associating stage at 4 °C, followed by PBST at a flow rate of 0.5⋅μL·s^−1 for 360 s at each dissociating stage. Then, the surface was regenerated with Glycine-HCl (pH = 2.0) at a flow rate of 2⋅μL·s^−1 for 300 s.
The raw data of the binding process of compounds and the 50S ribosome were recorded in real time. We compared the response unit (RU) of surface resonance to determine the different binding affinity between each sample dot. The process and analysis of association rate constants (Ka) and dissociation rate constants (Kd) and the equilibrium dissociation constant (KD, Kd/Ka) were performed using the data analysis software of the bScreen LB 991 Label-free Microarray System according to a single-site binding model (1:1 Langmuir binding) with mass transfer limitations for binding kinetics determination.

[4] = system: S. aureus (AD3); assay: MIC and MBC, broth dilution, S. aureus AD3; type: cell-based; settings: Staphylococcus aureus; S. aureus AD3 (clinical strain)
Description: as §1, §2, §3

[5] = system: S. aureus (ATCC 29213); assay: MIC and MBC, broth dilution, S. aureus ATCC 29213; type: cell-based; settings: Staphylococcus aureus, ATCC29213
Description: as §1, §2, §3

| SMILES | MIC [1] | MIC [2] | melting point | Avg kd [3] | Kd [3] | MIC [4] | MIC [5] | MBC [1] | MBC [2] | Avg ka [3] | MBC [4] | MBC [5] |
| --- | --- | --- | --- | --- | --- | --- | --- | --- | --- | --- | --- | --- |
| C=C[C@]1(C)C[C@@H](OC(=O)CNCCCc2ccccc2)[C@]2(C)[C@H](C)CC[C@]3(CCC(=O)[C@H]32)[C@@H](C)[C@@H]1O [Compound 19, 22-(3-Phenylpropylamineyl)-22-deoxypleuromutilin] | 1 µg/mL (≈ 2.02 µM) | 4 µg/mL (≈ 8.07 µM) | 83 to 84 °C | 0.000469 s⁻¹ | 0.151 µM | 1 µg/mL (≈ 2.02 µM) | 2 µg/mL (≈ 4.03 µM) | 2 µg/mL (≈ 4.03 µM) | 8 µg/mL (≈ 16.1 µM) | 3110 M⁻¹ s⁻¹ | 4 µg/mL (≈ 8.07 µM) | 4 µg/mL (≈ 8.07 µM) |
| C=C[C@]1(C)C[C@@H](OC(=O)CNc2cccc(Cl)c2)[C@]2(C)[C@H](C)CC[C@]3(CCC(=O)[C@H]32)[C@@H](C)[C@@H]1O [Compound 10, 22-(3-Chloroanilineyl)-22-deoxypleuromutilin] | 0.12 µg/mL (≈ 0.246 µM) | 0.25 µg/mL (≈ 0.512 µM) | 158 to 160 °C | 0.00224 s⁻¹ | 26 µM | 0.125 µg/mL (≈ 0.256 µM) | 0.12 µg/mL (≈ 0.246 µM) | 0.12 µg/mL (≈ 0.246 µM) | 0.5 µg/mL (≈ 1.02 µM) |  | 0.5 µg/mL (≈ 1.02 µM) | 0.25 µg/mL (≈ 0.512 µM) |
| C=C[C@]1(C)C[C@@H](OC(=O)CNc2ccc(Cl)cc2)[C@]2(C)[C@H](C)CC[C@]3(CCC(=O)[C@H]32)[C@@H](C)[C@@H]1O [Compound 11, 22-(4-Chloroanilineyl)-22-deoxypleuromutilin] | 0.12 µg/mL (≈ 0.246 µM) | 1 µg/mL (≈ 2.05 µM) | 94 to 95 °C | 0.0019 s⁻¹ | 51.8 µM | 0.25 µg/mL (≈ 0.512 µM) | 0.5 µg/mL (≈ 1.02 µM) | 0.25 µg/mL (≈ 0.512 µM) | 2 µg/mL (≈ 4.1 µM) |  | 1 µg/mL (≈ 2.05 µM) | 1 µg/mL (≈ 2.05 µM) |
| C=C[C@]1(C)C[C@@H](OC(=O)CNC23CC4CC(CC(C4)C2)C3)[C@]2(C)[C@H](C)CC[C@]3(CCC(=O)[C@H]32)[C@@H](C)[C@@H]1O [Compound 27, 22-Amantadineyl-22-deoxypleuromutilin] | 0.25 µg/mL (≈ 0.489 µM) | 4 µg/mL (≈ 7.82 µM) | 105 to 109 °C | 0.0215 s⁻¹ | 2920 µM | 2 µg/mL (≈ 3.91 µM) | 0.5 µg/mL (≈ 0.977 µM) | 0.25 µg/mL (≈ 0.489 µM) | 8 µg/mL (≈ 15.6 µM) | 7.36 M⁻¹ s⁻¹ | 4 µg/mL (≈ 7.82 µM) | 1 µg/mL (≈ 1.95 µM) |
| C=C[C@]1(C)C[C@@H](OC(=O)CNc2ccc(Br)cc2)[C@]2(C)[C@H](C)CC[C@]3(CCC(=O)[C@H]32)[C@@H](C)[C@@H]1O [Compound 13, 22-(4-Bromoanilineyl)-22-deoxypleuromutilin] | 0.12 µg/mL (≈ 0.225 µM) | 0.5 µg/mL (≈ 0.939 µM) | 97 to 98 °C | 0.197 s⁻¹ | 6350 µM | 0.25 µg/mL (≈ 0.469 µM) | 0.25 µg/mL (≈ 0.469 µM) | 0.12 µg/mL (≈ 0.225 µM) | 1 µg/mL (≈ 1.88 µM) |  | 1 µg/mL (≈ 1.88 µM) | 0.25 µg/mL (≈ 0.469 µM) |
| C=C[C@]1(C)C[C@@H](OC(=O)CNCc2ccccc2F)[C@]2(C)[C@H](C)CC[C@]3(CCC(=O)[C@H]32)[C@@H](C)[C@@H]1O [Compound 14, 22-(2-Fluorobenzylamineyl)-22-deoxypleuromutilin] | 1 µg/mL (≈ 2.06 µM) | 4 µg/mL (≈ 8.24 µM) | 163 to 164 °C | 0.065 s⁻¹ | 424 µM | 2 µg/mL (≈ 4.12 µM) | 4 µg/mL (≈ 8.24 µM) | 2 µg/mL (≈ 4.12 µM) | 8 µg/mL (≈ 16.5 µM) | 153 M⁻¹ s⁻¹ | 8 µg/mL (≈ 16.5 µM) | 8 µg/mL (≈ 16.5 µM) |
| C=C[C@]1(C)C[C@@H](OC(=O)CNCCc2ccccc2)[C@]2(C)[C@H](C)CC[C@]3(CCC(=O)[C@H]32)[C@@H](C)[C@@H]1O [Compound 17, 22-(2-PhenylethylaMineyl)-22-deoxypleuromutilin] | 1 µg/mL (≈ 2.08 µM) | 4 µg/mL (≈ 8.3 µM) | 73 to 75 °C | 0.00963 s⁻¹ | 4690 µM | 2 µg/mL (≈ 4.15 µM) | 2 µg/mL (≈ 4.15 µM) | 1 µg/mL (≈ 2.08 µM) | 4 µg/mL (≈ 8.3 µM) | 2.05 M⁻¹ s⁻¹ | 8 µg/mL (≈ 16.6 µM) | 8 µg/mL (≈ 16.6 µM) |

The remaining molecules from weak to strong by MIC [1], led by results:

| MIC [1] | MIC [2] | melting point | Avg kd [3] | Kd [3] | MIC [4] | MIC [5] | SMILES | MBC [1] | MBC [2] | Avg ka [3] | MBC [4] | MBC [5] |
| --- | --- | --- | --- | --- | --- | --- | --- | --- | --- | --- | --- | --- |
| 1 µg/mL (≈ 2.21 µM) | 2 µg/mL (≈ 4.43 µM) | 153 to 155 °C | 0.779 s⁻¹ |  | 1 µg/mL (≈ 2.21 µM) | 2 µg/mL (≈ 4.43 µM) | C=C[C@]1(C)C[C@@H](OC(=O)CNCCSC)[C@]2(C)[C@H](C)CC[C@]3(CCC(=O)[C@H]32)[C@@H](C)[C@@H]1O [Compound 26, 22-(2-(Methylthio)ethylamineyl)-22-deoxypleuromutilin] | 1 µg/mL (≈ 2.21 µM) | 4 µg/mL (≈ 8.86 µM) | 1.26 M⁻¹ s⁻¹ | 4 µg/mL (≈ 8.86 µM) | 2 µg/mL (≈ 4.43 µM) |
| 1 µg/mL (≈ 2.37 µM) | 4 µg/mL (≈ 9.49 µM) | 91 to 94 °C | 0.0272 s⁻¹ | 9.96 µM | 2 µg/mL (≈ 4.74 µM) | 2 µg/mL (≈ 4.74 µM) | C=C[C@]1(C)C[C@@H](OC(=O)CNCCO)[C@]2(C)[C@H](C)CC[C@]3(CCC(=O)[C@H]32)[C@@H](C)[C@@H]1O [Compound 28, 22-Ethanolamine-22-deoxypleuromutilin] | 2 µg/mL (≈ 4.74 µM) | 4 µg/mL (≈ 9.49 µM) | 2730 M⁻¹ s⁻¹ | 8 µg/mL (≈ 19 µM) | 8 µg/mL (≈ 19 µM) |
| 1 µg/mL (≈ 2.23 µM) | 2 µg/mL (≈ 4.47 µM) | 157 to 159 °C | 0.872 s⁻¹ |  | 2 µg/mL (≈ 4.47 µM) | 2 µg/mL (≈ 4.47 µM) | C=C[C@]1(C)C[C@@H](OC(=O)CN2CCOCC2)[C@]2(C)[C@H](C)CC[C@]3(CCC(=O)[C@H]32)[C@@H](C)[C@@H]1O [Compound 29, 22-Morpholine-22-deoxypleuromutilin] | 1 µg/mL (≈ 2.23 µM) | 4 µg/mL (≈ 8.94 µM) | 1.57 M⁻¹ s⁻¹ | 8 µg/mL (≈ 17.9 µM) | 2 µg/mL (≈ 4.47 µM) |
| 0.5 µg/mL (≈ 1.03 µM) | 2 µg/mL (≈ 4.1 µM) | 69 to 70 °C | 0.0197 s⁻¹ | 31.6 µM | 4 µg/mL (≈ 8.2 µM) | 2 µg/mL (≈ 4.1 µM) | C=C[C@]1(C)C[C@@H](OC(=O)CNCCc2cccs2)[C@]2(C)[C@H](C)CC[C@]3(CCC(=O)[C@H]32)[C@@H](C)[C@@H]1O [Compound 20, 22-(Thiophene-2-ethylamineyl)-22-deoxypleuromutilin] | 1 µg/mL (≈ 2.05 µM) | 4 µg/mL (≈ 8.2 µM) | 624 M⁻¹ s⁻¹ | 16 µg/mL (≈ 32.8 µM) | 2 µg/mL (≈ 4.1 µM) |
